# According to PMC10447463, “Data-mining unveils structure–property–activity correlation of viral infectivity enhancing self-assembling peptides” (Nature Communications, 2023):
# Read-outs that look alike come from different tables or passages of the source.
# Tests used:
# [1] = Conversion rate (CR) assay with fluorescamine; type: physicochemical; design: key to CR: % = 100−100×filtrate/original fluorescence intensity
# Procedure: For ATR FT–IR spectroscopy measurements, 200 µL of the respective 1 mg/mL PNF solution was lyophilized and the resulting powder used for measurement. All spectra were recorded on a Bruker Tensor 27 spectrometer with a diamond crystal as ATR element (PIKE MiracleTM, spectral resolution 2 cm^-1). Every sample was measured with 64 scans. Data were analyzed with OriginLab software and calculation of β–sheet content was conducted according to a previous report. TEM. For TEM measurements 5 µL of PNF fibrils (1 mg/mL) were placed on copper grids coated with carbon and formvar layer (300 mesh, Plano GmbH). After 10 min incubation time, the grids were staining with 4% uranyl acetate solution for 2.5 min and washed with water. Measurements were performed on a Jeol 1400 electron microscope with 120 kV acceleration voltage. CR Assay. For the determination of the amount of peptide monomer converting into nanostructures the amine reactive dye fluorescamine was used analogous to a previous reported protocol. Briefly, 100 µL of the preformed PNF solution was centrifuged in a Vivaspin 500 tube (3 kDa MWCO) to separate fibers from free peptide monomer (16200 x g, 4 °C, 45 min). The filtrate and 100 μL of the non-filtered PNF sample were lyophilized and dissolved in 30 μL DMSO. 10 μL of the filtrate and non-filtered DMSO samples were submitted in a black UV Star® 384 microliter well–plates (Greiner bio–one) and 3 μL of the fluorescamine solution (10 mg/mL, DMSO) was added to measure the fluorescence enhancement. After 20 min of incubation at RT, fluorescence was recorded on an Infinite® M1000 PRO microplate reader (Tecan) at λem = 470 nm upon excitation at λex = 365 nm with 10 nm bandwidths and multiple reads per well (3×3). Measurements were repeated in triplicates and averaged with standard deviation. All values were calculated as n-fold fluorescence enhancement (DMSO only as a reference was set to 1). The conversion rate CR was defined according to the equation Eq. (3).3 CR=100−100×fluorescenceintensityfiltrate/fluorescenceintensityoriginal[%]
# [2] = test system: HIV-1 infection of TZM-bl cells; experiment: HIV-1 infectivity enhancement assay, β-galactosidase luminescence; type: cell-based; conditions: for Rel-EFC: infection relative to EF-C (QCKIKQIINMWQ = 1); for Log10 Infection Rel EFC: log10 of infection relative to EF-C; for Log Infectivity: Log10 infection relative to EF-C, asymmetric std dev errors; for Log10 Infection Rel EF-C: HIV-1 infection of TZM-bl cells; for Log10 of Rel to EFC (Feb2021): Log10 of infection relative to EF-C, all peptides of FigS16; for Abs. Inf. / RLU s-1: absolute infection rate, peptide 1.3 µM on cells, virus preincubated 10 min with fibrils, read 3 days post infection; for Abs. Inf.: β-galactosidase luminescence; for Log10 Inf. rel. to EF-C: log10 of HIV-1 infection of TZM-bl cells relative to EF-C (EF-C = 0)
# [3] = type: physicochemical; conditions: for ThT Cat. / ThT-Fluorescence (categorical): ThT-active if fluorescence at least twice the control; for Rel. ThT: n-fold ThT fluorescence vs control (PBS, 10% DMSO), 4 µL 1 mg/mL fibrils + 20 µL 50 µM ThT, 15 min RT, ex 440 / em 488 nm, triplicate
# Procedure, shortened: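 Fibrils (1 mg/mL solution) were mixed with 50 µM ThT in PBS for 15 min at RT, and fluorescence was read at λex 440/λem 488 nm against a PBS blank, as a triplicate mean ± SD. Zeta potential came from electrophoretic mobility (Smoluchowski) after 1 d aggregation at 1 mg/mL in PBS pH 7.4, diluted into 1 mM KCl.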
# [4] = Fig. S7 panel B, conversion rate, fluorescamine assay
# [5] = conversion rate, fluorescamine assay
# [6] = Fig. S7 panel A (plotted against β-sheet content), TZM-bl cells
# [7] = Fig. S7 panel B (plotted against CR), rounded to two decimals, TZM-bl cells
# [8] = Log10 of infection rate relative to EF-C, Figure 3A source data
# [9] = infection rate relative to EF-C, log10, data of Figure 2D
# [10] = infection rate relative to EF-C, log10, source data of Figure 2C
# [11] = ThT fluorescence category, 1 if Rel. ThT >2
# [12] = conversion of monomer to nanostructures, 3 kDa MWCO filtration, fluorescamine, ex 365 / em 470 nm, triplicate
# [13] = HIV-1 infection relative to EF-C, Fig 23 plot, panels A and B, mean of 3 values
# [14] = HIV-1 infection relative to EF-C, Fig 23 plot, single data point, replicate 1
# [15] = HIV-1 infection relative to EF-C, Fig 23 plot, single data point, replicate 2
# [16] = HIV-1 infection relative to EF-C, Fig 23 plot, single data point, replicate 3
# [17] = absolute infection signal, HIV-1 on TZM-bl cells
# [18] = n-fold infection vs virus only, relative to that of EF-C, 1.3 µM peptide
Substance,"CR / % [1, 4] [%]","CR [1, 5]",Rel-EFC ([2]; 1.3 µM peptide),Log10 Infection Rel EFC ([2]; 1.3 µM peptide),"Log Infectivity [2, 6]","Log Infectivity [2, 7]","Log10 Infection Rel EF-C [2, 8]","Log10 Infection Rel EF-C [2, 9]","Log10 Infection Rel EF-C [2, 10]",Abs. Inf. / RLU s-1 ([2]; mean of triplicate) [RLU s-1],Tht category (> 2 to blank = +) ([3]; Fig S10 panel D),ThT Cat. ([3]; Fig S10 panel E),"ThT Cat, ([3]; ThT category, 1 if Rel. ThT >2)",ThT Cat. / ThT-Fluorescence (categorical) [3],"CR / % [1, 12] [%]","Inf. rel. EF-C [2, 13]","Inf. rel. EF-C [2, 14]",Tht category (> 2 to blank = +) ([3]; FigS12 panel A),"ThT Cat, ([3]; FigS12 panel B)","ThT Cat. ([3]; ThT category, 1 if Rel. ThT >2)",further results
CKIKIQI,54,54,"1,02","0,01",0.0081,0.01,0.01,0.0081,0.0081,19406.66667,"1 (ThT. Cat is 1, if Rel. ThT >2)","1 (ThT. Cat is 1, if Rel. ThT >2)","1 (ThT. Cat is 1, if Rel. ThT >2)","1 (ThT. Cat is 1, if Rel. ThT >2)",–,–,–,–,–,–,"Log10 of Rel to EFC (Feb2021) [2]: 0.01; Abs. Infection at 0.26 µM ([2]; peptide 0.26 µM, mean of triplicate): 4967; Infection RLU/s, 1.3 µm abs ([2]; peptide 1.3 µm (so in the source), mean of the 3 replicates): 19406.66667 RLU/s; ThT Cat. [3, 11]: 1 (ThT. Cat is 1, if Rel. ThT >2)"
QCKAKAQANM,55.9,55.94,"0,01","-1,83",-1.835,-1.83,-1.83,-1.835,-1.835,563,0 (ThT-inactive (N-Fold <2)),0 (ThT-inactive (N-Fold <2)),0 (ThT-inactive (N-Fold <2)),0 (ThT-inactive (N-Fold <2)),56,0.02465,0.03504,0 (ThT-inactive (N-Fold <2)),0 (ThT-inactive (N-Fold <2)),0 (ThT-inactive (N-Fold <2)),"Inf. rel. EF-C [2, 15]: 0.01727; Inf. rel. EF-C [2, 16]: 0.02164; Abs. Inf. [2, 17]: 563.3; Inf. rel. EF-C [2, 18]: 0.01; Rel. ThT [3]: 1.4"
CKAKAQANMWQ,92.5,92.45,"0,04","-1,36",-1.359,-1.36,-1.36,-1.359,-1.359,600,0 (ThT-inactive (N-Fold <2)),0 (ThT-inactive (N-Fold <2)),0 (ThT-inactive (N-Fold <2)),0 (ThT-inactive (N-Fold <2)),92,0.02574,0.02321,0 (ThT-inactive (N-Fold <2)),0 (ThT-inactive (N-Fold <2)),0 (ThT-inactive (N-Fold <2)),"Inf. rel. EF-C [2, 15]: 0.03098; Inf. rel. EF-C [2, 16]: 0.02305; Abs. Inf. [2, 17]: 600; Log10 Inf. rel. to EF-C [2]: -1.359; Inf. rel. EF-C [2, 18]: 0.04; Rel. ThT [3]: 1.9"
CKAKAQANM,47.9,47.87,"0,03","-1,5",-1.504,-1.5,-1.5,-1.504,-1.504,430,0 (ThT-inactive (N-Fold <2)),0 (ThT-inactive (N-Fold <2)),0 (ThT-inactive (N-Fold <2)),0 (ThT-inactive (N-Fold <2)),48,0.01839,0.01398,0 (ThT-inactive (N-Fold <2)),0 (ThT-inactive (N-Fold <2)),0 (ThT-inactive (N-Fold <2)),"Inf. rel. EF-C [2, 15]: 0.02152; Inf. rel. EF-C [2, 16]: 0.01966; Abs. Inf. [2, 17]: 430; Log10 Inf. rel. to EF-C [2]: -1.504; Inf. rel. EF-C [2, 18]: 0.03; Rel. ThT [3]: 1.2"
KIKIQIII,87,87,"0,35","-0,45",-0.4521,-0.45,-0.45,-0.4521,-0.4521,–,"1 (ThT. Cat is 1, if Rel. ThT >2)","1 (ThT. Cat is 1, if Rel. ThT >2)","1 (ThT. Cat is 1, if Rel. ThT >2)","1 (ThT. Cat is 1, if Rel. ThT >2)",–,–,–,–,–,–,"Log10 of Rel to EFC (Feb2021) [2]: -0.45; ThT Cat. [3, 11]: 1 (ThT. Cat is 1, if Rel. ThT >2)"
EIKIQINM,50.7,50.72,"0,1",-1,-1.001,-1,-1,-1.001,-1.001,–,"1 (ThT. Cat is 1, if Rel. ThT >2)","1 (ThT. Cat is 1, if Rel. ThT >2)","1 (ThT. Cat is 1, if Rel. ThT >2)","1 (ThT. Cat is 1, if Rel. ThT >2)",–,–,–,"1 (ThT. Cat is 1, if Rel. ThT >2)","1 (ThT. Cat is 1, if Rel. ThT >2)","1 (ThT. Cat is 1, if Rel. ThT >2)","Abs. Inf. ([2]; absolute HIV-1 infection signal, TZM-bl cells): 3607"
